Data taken from patent US20030069189A1, “Treatment of infarcts” (Millennium Pharmaceuticals, Inc., priority 1997, published 2003).

System: middle cerebral artery (MCA) occlusion
Settings: rat, 2 h MCA occlusion, 24 h reperfusion, 0.03 mg/kg iv bolus at 30 minutes
Method: Six male Sprague Dawley rats (300 g) were anesthetized with haloethane and subjected to middle cerebral artery (MCA) occlusion using a nylon filament for 2 h. Subsequently, the filament was removed and reperfusion of the infarcted tissue occurred for 24 hours before the rat was sacrificed.
Staining of coronal sections (2.0 mm×7-8) with triphenyltetrazolium chloride ([…]) taken throughout the brain were evaluated under blinded conditions using image analysis to determine infarct size.
The infarct was also expressed as a percentage of the contralateral (non-infarcted) hemisphere to provide an indication of how much of the ipsilateral (infarcted) hemisphere was actually damaged by the procedure. Because edema is present in the infarcted hemisphere, it is often impossible to directly ascertain the percentage of the ipsilateral hemisphere that has been damaged.
Rats were given iv bolus injections (1.0 mL/kg) of either vehicle (10% PEG 200/saline; n=3) or N-(2-pyrazine)carbonyl-L-phenylalanine-L-leucine boronic acid (0.03 mg/kg; n=3) at 30 minutes, 2 hours, and 6 hours after the start of the occlusion.

SMILES: CC(C)CC(NC(=O)C(Cc1ccccc1)NC(=O)c1cnccn1)B(O)O [N-(2-pyrazine)carbonyl-L-phenylalanine-L-leucine boronic acid]
- Infarct volume decreased on the ipsilateral hemisphere (2 hours and 6 hours after start of occlusion, vs vehicle): 62%
- Total damage of the hemisphere (infarct as percentage of contralateral hemisphere) (2 hours and 6 hours, vehicle 19%): 2%
